Data taken from article PMC3076582 (European Journal of Clinical Pharmacology, 2010).
Where two headings read alike, the source gives them in different places.

Experiments:
CYP3A4 = details: cited from earlier work
CYP2D6 = details: healthy volunteers; cited from earlier work
[1] = assay type: in vivo, human; details: for Dose-corrected serum concentration, 25th percentile / Dose-corrected serum concentration, 75th percentile / Dose-corrected serum concentration, mean / Dose-corrected serum concentration, median / Dose-corrected serum concentration, minimum to maximum / Uncorrected serum concentration, 25th percentile / Uncorrected serum concentration, 75th percentile / Uncorrected serum concentration, mean / Uncorrected serum concentration, minimum to maximum / Uncorrected serum concentration, median / Ratio metabolite/oxycodone serum concentration, 25th percentile / Ratio metabolite/oxycodone serum concentration, 75th percentile / Ratio metabolite/oxycodone serum concentration, mean / Ratio metabolite/oxycodone serum concentration, median / Ratio metabolite/oxycodone serum concentration, minimum to maximum: hospitalised patients; for Uncorrected serum concentration, median: oral oxycodone, trough sample; for Serum concentration, range / Serum concentration, median: partly different from Table 3; for Ratio metabolite/oxycodone serum concentration, 25th percentile / Ratio metabolite/oxycodone serum concentration, 75th percentile / Ratio metabolite/oxycodone serum concentration, mean / Ratio metabolite/oxycodone serum concentration, median / Ratio metabolite/oxycodone serum concentration, minimum to maximum: uncorrected serum concentrations
[2] = for Unstandardised coefficient B, ratio noroxycodone/oxycodone / Unstandardised coefficient B, oxycodone serum concentration / Unstandardised coefficient B, ratio oxymorphone/oxycodone: log 10 form
[3] = cited from earlier work
[4] = Mann-Whitney U test; 35 users
[5] = cited from earlier work; remark: listed apart in the source
[6] = cited from earlier work; remark: listed apart in the source
[7] = factor: CYP3A4 inducer (yes = 1)
[8] = factor: CYP3A4 inhibitor (yes = 1)
[9] = factor: sex (men = 1, women = 0)
[10] = factor: time from last oxycodone dose to blood sample

SMILES | AUC after blocking the CYP2D6 metabolic pathways of oxycodone with quinidine (CYP2D6) | 95% CI for the mean ratio metabolite/oxycodone [1] [nM] | 95% CI for the uncorrected mean serum concentration [1] [nM] | Dose-corrected serum concentration, 25th percentile [1] | Dose-corrected serum concentration, 75th percentile [1] | Dose-corrected serum concentration, mean [1] | Dose-corrected serum concentration, median [1] | Dose-corrected serum concentration, minimum to maximum [1] | Uncorrected serum concentration, 25th percentile [1] [nM] | Uncorrected serum concentration, 75th percentile [1] [nM] | Uncorrected serum concentration, mean [1] [nM] | Uncorrected serum concentration, minimum to maximum [1] | Uncorrected serum concentration, median [1] [nM] | Serum concentration, range [1] | Ratio metabolite/oxycodone serum concentration, 25th percentile [1] | Ratio metabolite/oxycodone serum concentration, 75th percentile [1] | Ratio metabolite/oxycodone serum concentration, mean [1] | Ratio metabolite/oxycodone serum concentration, median [1] | Ratio metabolite/oxycodone serum concentration, minimum to maximum [1] | Serum concentration, median [1] [nM] | also measured
COc1ccc2c3c1O[C@H]1C(=O)CC[C@@]4(O)[C@@H](C2)NCC[C@]314 [Noroxycodone, noroxycodone] | increased | 1.4 to 1.8 | 174 to 245 | 103 nM × 100 mg 24 h^−1/dose 24 h^−1 | 261 nM × 100 mg 24 h^−1/dose 24 h^−1 | 212 nM × 100 mg 24 h^−1/dose 24 h^−1 | 161 nM × 100 mg 24 h^−1/dose 24 h^−1 | 0–3,032 nM × 100 mg 24 h^−1/dose 24 h^−1 | 44 | 211 | 209 | 0–3,571 nM | 101 | 0 to 4,858 nM | 0.7 | 1.9 | 1.6 | 1.1 | 0.1–24.4 | – | Cmax after blocking the CYP3A4 metabolic pathway with ketoconazole (CYP3A4): decreased; Unstandardised coefficient B, ratio noroxycodone/oxycodone ([2]; factor: BMI): −0.009; Unstandardised coefficient B, ratio noroxycodone/oxycodone [2, 7]: 0.602; Unstandardised coefficient B, ratio noroxycodone/oxycodone [2, 8]: −0.294; Unstandardised coefficient B, ratio noroxycodone/oxycodone ([2]; factor: albumin): 0.006; Unstandardised coefficient B, ratio noroxycodone/oxycodone ([2]; factor: glomerular filtration rate): −0.001; Unstandardised coefficient B, ratio noroxycodone/oxycodone ([2]; factor: oxycodone total daily dose, n = 396, R^2 = 0.19): 0.001; Unstandardised coefficient B, ratio noroxycodone/oxycodone [2, 9]: −0.110; Unstandardised coefficient B, ratio noroxycodone/oxycodone ([2]; factor: systemic steroids (yes = 1)): −0.070; Unstandardised coefficient B, ratio noroxycodone/oxycodone [2, 10]: 0.012; Predicted higher noroxycodone/oxycodone ratio in users of CYP3A4 inducers ([2]; human, in vivo): about 4 times; Predicted lower noroxycodone/oxycodone ratio in users of systemic steroids ([2]; human, in vivo): 15%
O=C1CC[C@@]2(O)[C@H]3Cc4ccc(O)c5c4[C@@]2(CCN3)[C@H]1O5 [Noroxymorphone, noroxymorphone] | – | – | – | 18 nM × 100 mg 24 h^−1/dose 24 h^−1 | 44 nM × 100 mg 24 h^−1/dose 24 h^−1 | 34 nM × 100 mg 24 h^−1/dose 24 h^−1 | 29 nM × 100 mg 24 h^−1/dose 24 h^−1 | 0–360 nM × 100 mg 24 h^−1/dose 24 h^−1 | 8 | 39 | 30 | 0 to 509 nM | 17 | 0 to 509 nM | – | – | – | – | – | 17 | –
COc1ccc2c3c1O[C@H]1C(=O)CC[C@@]4(O)[C@@H](C2)N(C)CC[C@]314 [Oxycodone, oxycodone, reference compound] | increased | – | 139 to 183 | 90 nM × 100 mg 24 h^−1/dose 24 h^−1 | 225 nM × 100 mg 24 h^−1/dose 24 h^−1 | 186 nM × 100 mg 24 h^−1/dose 24 h^−1 | 144 nM × 100 mg 24 h^−1/dose 24 h^−1 | 0–1,294 nM × 100 mg 24 h^−1/dose 24 h^−1 | 43 | 201 | 161 | 0–1,890 nM | 97 | 0 to 1,890 nM | – | – | – | – | – | – | Plasma concentrations in elderly versus younger patients [3]: may have higher; Serum concentration, users versus non-users of CYP2D6 inhibitors [4]: did not differ; Predicted higher oxycodone serum concentration in men than in women ([2]; calculated from the regression analysis): about 30%; Unstandardised coefficient B, oxycodone serum concentration [2, 7]: −0.786; Unstandardised coefficient B, oxycodone serum concentration [2, 8]: 0.204; Unstandardised coefficient B, oxycodone serum concentration ([2]; factor: oxycodone total daily dose, n = 433, R^2 = 0.35): 0.002; Unstandardised coefficient B, oxycodone serum concentration [2, 9]: 0.113; Unstandardised coefficient B, oxycodone serum concentration [2, 10]: −0.027; Predicted higher oxycodone serum concentration in users of CYP3A4 inhibitors ([2]; versus non-users): 60%; Predicted lower oxycodone serum concentration in users of CYP3A4 inducer drugs ([2]; versus those without CYP3A4 inducer drug): 84%; Oral bioavailability [5]: 60–87%
CN1CC[C@]23c4c5ccc(O)c4O[C@H]2C(=O)CC[C@@]3(O)[C@H]1C5 [Oxymorphone, oxymorphone] | decreased | 0.020 to 0.025 | 2.3 to 3.0 | 1.2 nM × 100 mg 24 h^−1/dose 24 h^−1 | 4.2 nM × 100 mg 24 h^−1/dose 24 h^−1 | 3.4 nM × 100 mg 24 h^−1/dose 24 h^−1 | 2.2 nM × 100 mg 24 h^−1/dose 24 h^−1 | 0–34 nM × 100 mg 24 h^−1/dose 24 h^−1 | 0.7 | 3.2 | 2.6 | 0 to 25 nM | 1.5 | 0 to 27 nM | 0.01 | 0.03 | 0.02 | 0.02 | 0.00032–0.21 | 1.5 | AUC after blocking the CYP3A4 metabolic pathway with ketoconazole (CYP3A4): increased; Concentrations in patients with impaired hepatic function [3]: lower; Serum concentration, users versus non-users of CYP2D6 inhibitors [4]: did not differ; Unstandardised coefficient B, ratio oxymorphone/oxycodone [2, 7]: 0.607; Unstandardised coefficient B, ratio oxymorphone/oxycodone ([2]; factor: number of medications (excluding opioids) taken in the last 24 h): −0.024; Unstandardised coefficient B, ratio oxymorphone/oxycodone ([2]; factor: oxycodone total daily dose, n = 438, R^2 = 0.05): −0.0004
CN1CC[C@]23c4c5ccc(O)c4O[C@H]2[C@@H](O)C=C[C@H]3[C@H]1C5 [morphine] | – | – | – | – | – | – | – | – | – | – | – | – | – | – | – | – | – | – | – | – | Additional morphine needed by men compared with women for pain relief [6]: 30–40%
